Results as given in article PMC5608804, “Stepwise Evolution Improves Identification of Diverse Peptides Binding to a Protein Target” (Scientific Reports, 2017).

Target: T1, streptavidin (Streptomyces avidinii, UniProt P22629)
T1 construct: purchased GE Healthcare (Little Chalfont, UK)
Assay: Cy5-streptavidin binding on HotSpot discovery array, 5-mer L-peptide library
Conditions: for S/B: signal to background ratio
Method in brief: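 Array of 2,476,099 5-mer peptides (19 amino acids, no cysteine) with Gly-Ser linkers, probed overnight at 4 °C with 0.5 µg/ml Cy5-streptavidin in Tris pH 7.4 buffer containing casein or BSA plus Tween-20. Cy5 fluorescence read at 635 nm; peptides selected by signal-to-background >4 across three arrays.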

[1] = 5-mer L-peptide library array, Cy5-streptavidin, from the average of three arrays
[2] = 5-mer L-peptide library array, Cy5-streptavidin
[3] = 5-mer L-peptide library array, Cy5-streptavidin, from average of three arrays
[4] = 5-mer L-peptide library, from the average of three arrays
[5] = average of three arrays, L-peptide 5-mer library

T1 sequence (P22629 25-183): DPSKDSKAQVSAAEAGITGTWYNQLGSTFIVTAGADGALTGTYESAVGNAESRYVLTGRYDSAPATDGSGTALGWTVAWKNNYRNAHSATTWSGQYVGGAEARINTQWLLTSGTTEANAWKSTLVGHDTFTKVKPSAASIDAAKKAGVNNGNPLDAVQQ

Q: For QHPQF, which “S/B (signal to background ratio)” value [1] is on record?
A: The value was 117.5.

Q: With PHPQK as the substance, how does the S/B [2] read?
A: Its S/B is 14.7.

Q: Which S/B [2] does the source give for HPMFH here?
A: The S/B was 6.8.

Q: With VLHPM as the substance, how does the “S/B (signal to background ratio)” value [3] read?
A: Its value is 32.2.

Q: For HPQGY, which “S/B (signal to background ratio)” value [3] is on record?
A: Its value is 53.6.

Q: For FLGHP, which “S/B (signal to background ratio)” value [4] is on record?
A: Its value is 4.2.

Q: What does the source list for HGFPT?
A: S/B (signal to background ratio) [4]: 4.2; S/B (signal to background ratio) [5]: 4.2

Q: For PTHPQ, which “S/B (signal to background ratio)” value [3] is on record?
A: Its value is 130.7.

Q: Which “S/B (signal to background ratio)” value [1] does the source give for HPQNW here?
A: The value was 93.4.

Q: For HPQVY, which “S/B (signal to background ratio)” value [1] is on record?
A: The value was 64.1.

Q: HPQFV was tested. Which “S/B (signal to background ratio)” value [1] did it give?
A: The value was 69.2.

Q: GHPQM was tested. Which “S/B (signal to background ratio)” value [3] did it give?
A: The value was 40.8.

Q: Which “S/B (signal to background ratio)” value [1] does the source give for WHPMN here?
A: The value was 67.3.

Q: KIHPQ was tested. Which “S/B (signal to background ratio)” value [1] did it give?
A: Its value is 60.4.

Q: For KHPQY, which S/B [2] is on record?
A: Its S/B is 18.3.

Q: With NTHPQ as the substance, how does the “S/B (signal to background ratio)” value [3] read?
A: Its value is 133.1.

Q: For HPMAP, which “S/B (signal to background ratio)” value [3] is on record?
A: The value was 37.9.

Q: Which “S/B (signal to background ratio)” value [3] does the source give for IHPQF here?
A: Its value is 148.4.

Q: With QHPMR as the substance, how does the S/B [2] read?
A: The S/B was 9.5.

Q: How did the “S/B (signal to background ratio)” value [3] turn out when TYHPQ was run?
A: The value was 168.9.

Q: How did the “S/B (signal to background ratio)” value [3] turn out when FHPMM was run?
A: The value was 24.3.

Q: SQHPM was tested. Which “S/B (signal to background ratio)” value [3] did it give?
A: Its value is 50.2.

Q: DHPQK was tested. Which “S/B (signal to background ratio)” value [3] did it give?
A: The value was 32.1.

Q: Which “S/B (signal to background ratio)” value [3] does the source give for HLHPM here?
A: Its value is 40.7.

Q: Which “S/B (signal to background ratio)” value [1] does the source give for FFHPM here?
A: The value was 89.2.

Q: With HTHPQ as the substance, how does the “S/B (signal to background ratio)” value [3] read?
A: Its value is 139.1.

Q: Which “S/B (signal to background ratio)” value [5] does the source give for “TPSFG [L-amino acid 5-mer array peptide]” here?
A: The value was 6.3.

Q: And the S/B [2]?
A: Its S/B is 6.3.

Q: With WVHPQ as the substance, how does the “S/B (signal to background ratio)” value [3] read?
A: Its value is 169.6.

Q: For YLHPM, which “S/B (signal to background ratio)” value [1] is on record?
A: Its value is 70.7.

Q: How did the “S/B (signal to background ratio)” value [3] turn out when PRHPQ was run?
A: The value was 161.5.

Q: Which S/B [2] does the source give for HPQRP here?
A: The S/B was 9.4.

Q: KHPMS was tested. Which S/B [2] did it give?
A: The S/B was 8.8.

Q: Which “S/B (signal to background ratio)” value [3] does the source give for RHPQA here?
A: The value was 134.8.

Q: Which “S/B (signal to background ratio)” value [3] does the source give for IHPQQ here?
A: Its value is 32.5.

Q: Which “S/B (signal to background ratio)” value [1] does the source give for KMHPQ here?
A: Its value is 80.4.

Q: For HPMYA, which S/B [2] is on record?
A: The S/B was 11.4.

Q: Which S/B [2] does the source give for LHPMN here?
A: Its S/B is 9.7.

Q: With RYHPQ as the substance, how does the “S/B (signal to background ratio)” value [3] read?
A: Its value is 175.9.

Q: For HQHPQ, which “S/B (signal to background ratio)” value [3] is on record?
A: Its value is 145.4.

Q: HPQGN was tested. Which “S/B (signal to background ratio)” value [1] did it give?
A: Its value is 108.4.

Q: How did the “S/B (signal to background ratio)” value [1] turn out when HPQGT was run?
A: Its value is 67.0.

Q: How did the “S/B (signal to background ratio)” value [3] turn out when YHPMV was run?
A: Its value is 20.3.

Q: With HPQIG as the substance, how does the “S/B (signal to background ratio)” value [3] read?
A: The value was 31.0.

Q: How did the “S/B (signal to background ratio)” value [1] turn out when TKHPQ was run?
A: The value was 61.5.

Q: For HPQQG, which “S/B (signal to background ratio)” value [3] is on record?
A: Its value is 47.0.

Q: How did the “S/B (signal to background ratio)” value [3] turn out when RHPQY was run?
A: Its value is 41.5.

Q: How did the “S/B (signal to background ratio)” value [1] turn out when KPHPQ was run?
A: The value was 117.2.

Q: For HPAYT, which “S/B (signal to background ratio)” value [4] is on record?
A: Its value is 5.1.

Q: How did the “S/B (signal to background ratio)” value [3] turn out when HHPQQ was run?
A: Its value is 45.6.

Q: For WAHPM, which “S/B (signal to background ratio)” value [3] is on record?
A: The value was 135.8.

Q: For HPQAA, which “S/B (signal to background ratio)” value [3] is on record?
A: The value was 43.7.

Q: Which “S/B (signal to background ratio)” value [3] does the source give for FHPMN here?
A: Its value is 26.9.

Q: How did the “S/B (signal to background ratio)” value [1] turn out when KHHPQ was run?
A: The value was 96.3.

Q: How did the “S/B (signal to background ratio)” value [1] turn out when THPQV was run?
A: Its value is 88.9.

Q: HPMSA was tested. Which S/B [2] did it give?
A: The S/B was 8.0.

Q: Which “S/B (signal to background ratio)” value [4] does the source give for HFPQN here?
A: Its value is 4.1.

Q: For HPMFL, which S/B [2] is on record?
A: Its S/B is 5.4.

Q: “DPFGW [L-amino acid 5-mer array peptide]” was tested. Which “S/B (signal to background ratio)” value [5] did it give?
A: The value was 10.1.

Q: And the S/B [2]?
A: The S/B was 10.1.

Q: HPMGG was tested. Which “S/B (signal to background ratio)” value [1] did it give?
A: Its value is 60.6.

Q: With RDHPQ as the substance, how does the “S/B (signal to background ratio)” value [3] read?
A: Its value is 132.4.

Q: Which “S/B (signal to background ratio)” value [3] does the source give for IGHPQ here?
A: The value was 174.2.

Q: HPQNL was tested. Which “S/B (signal to background ratio)” value [3] did it give?
A: Its value is 57.7.

Q: With YHPQG as the substance, how does the “S/B (signal to background ratio)” value [3] read?
A: The value was 153.3.

Q: For VHPMQ, which S/B [2] is on record?
A: Its S/B is 9.6.

Q: With PHPQS as the substance, how does the “S/B (signal to background ratio)” value [1] read?
A: The value was 95.0.

Q: With HPQNP as the substance, how does the “S/B (signal to background ratio)” value [1] read?
A: The value was 89.0.

Q: DFHPM was tested. Which “S/B (signal to background ratio)” value [3] did it give?
A: The value was 36.4.

Q: Which S/B [2] does the source give for HPMYF here?
A: The S/B was 12.1.

Q: What does the source list for “MAMHF [L-amino acid 5-mer array peptide]”?
A: S/B (signal to background ratio) [5]: 17.9; S/B [2]: 17.9

Q: With SLHPQ as the substance, how does the “S/B (signal to background ratio)” value [3] read?
A: Its value is 133.4.

Q: Which “S/B (signal to background ratio)” value [1] does the source give for KVHPQ here?
A: The value was 65.5.

Q: FHPQE was tested. Which “S/B (signal to background ratio)” value [4] did it give?
A: Its value is 5.1.

Q: How did the “S/B (signal to background ratio)” value [3] turn out when KKHPQ was run?
A: The value was 22.5.

Q: How did the “S/B (signal to background ratio)” value [3] turn out when KWHPQ was run?
A: The value was 127.9.

Q: HPHPQ was tested. Which “S/B (signal to background ratio)” value [3] did it give?
A: The value was 185.1.

Q: With HPQHL as the substance, how does the S/B [2] read?
A: Its S/B is 9.2.

Q: EEHPQ was tested. Which “S/B (signal to background ratio)” value [3] did it give?
A: Its value is 27.3.

Q: VRHPM was tested. Which “S/B (signal to background ratio)” value [1] did it give?
A: The value was 64.0.

Q: “RFDLL [L-amino acid 5-mer array peptide]” was tested. Which “S/B (signal to background ratio)” value [5] did it give?
A: Its value is 5.2.

Q: What about the S/B [2] of the same substance?
A: Its S/B is 5.2.

Q: For PDHPM, which “S/B (signal to background ratio)” value [3] is on record?
A: The value was 23.4.

Q: With STHPM as the substance, how does the “S/B (signal to background ratio)” value [3] read?
A: The value was 48.2.

Q: Which “S/B (signal to background ratio)” value [3] does the source give for TYHPM here?
A: Its value is 50.6.

Q: With FMHPM as the substance, how does the “S/B (signal to background ratio)” value [1] read?
A: The value was 101.3.

Q: Which S/B [2] does the source give for HPQQD here?
A: Its S/B is 7.4.

Q: For EHPQI, which S/B [2] is on record?
A: The S/B was 6.3.

Q: With GNHPQ as the substance, how does the “S/B (signal to background ratio)” value [3] read?
A: Its value is 132.4.

Q: How did the “S/B (signal to background ratio)” value [3] turn out when RHPQW was run?
A: The value was 20.3.

Q: With MHPQG as the substance, how does the “S/B (signal to background ratio)” value [3] read?
A: The value was 122.9.

Q: How did the “S/B (signal to background ratio)” value [3] turn out when WHPQT was run?
A: Its value is 54.9.

Q: Which “S/B (signal to background ratio)” value [3] does the source give for HPQAF here?
A: The value was 40.6.

Q: For MHHPQ, which “S/B (signal to background ratio)” value [3] is on record?
A: Its value is 178.1.

Q: Which S/B [2] does the source give for HPQQH here?
A: The S/B was 12.2.

Q: For QRHPQ, which “S/B (signal to background ratio)” value [3] is on record?
A: Its value is 154.5.

Q: With SDHPQ as the substance, how does the “S/B (signal to background ratio)” value [1] read?
A: The value was 92.6.

Q: “GLGYH [L-amino acid 5-mer array peptide]” was tested. Which “S/B (signal to background ratio)” value [4] did it give?
A: The value was 4.6.

Q: What about the “S/B (signal to background ratio)” value [5] of the same substance?
A: The value was 4.6.
